Experimental data taken from patent US11773078B2, “Furin inhibitors” (Glaxosmithkline Intellectual Property Development Limited, priority 2018, dated 2023).

Tests used:
[1] = biological target: T1, Furin (108-574-Tev-Flag-His) enzyme (Homo sapiens, UniProt P09958); test: Furin enzyme assay; format: biochemical
T1 construct: Furin (108-574-Tev-Flag-His) enzyme was expressed and purified from CHO cells; TEV cleavage site (C); FLAG (C); His (C); made in house; host or cells: CHO cells
Method in brief: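 CHO-expressed, purified furin construct at 40 pM in 100 mM HEPES pH7.5, 1 mM CaCl2, 0.005% Triton X-100. Eleven-point 1:3 series, 0.00017–10 μM final, incubated 2 h at room temperature and read on Envision. pXC50 from four-parameter fit.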

[2] = biological target: T2, furin (endogenous protease) in U20S cells (Homo sapiens, UniProt P09958); test: Furin cell-based assay (image-based, Golgi-targeted GFP with BMP10 furin/PCSK cleavage site); details: 24-hour incubation, read-out: furin golgi cell pXC50 (converted);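 further: Read-out is mean GFP fluorescence of Golgi puncta per cell by high-content imaging, retained when furin inhibited, over an eleven-point 0.00017–10 µM series, four-parameter fit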
T2 construct: the endogenous protease cleaves GFP; endogenous in cells; host or cells: U2OS cells transduced with a BacMam reporter
T2 sequence (P09958 108-794): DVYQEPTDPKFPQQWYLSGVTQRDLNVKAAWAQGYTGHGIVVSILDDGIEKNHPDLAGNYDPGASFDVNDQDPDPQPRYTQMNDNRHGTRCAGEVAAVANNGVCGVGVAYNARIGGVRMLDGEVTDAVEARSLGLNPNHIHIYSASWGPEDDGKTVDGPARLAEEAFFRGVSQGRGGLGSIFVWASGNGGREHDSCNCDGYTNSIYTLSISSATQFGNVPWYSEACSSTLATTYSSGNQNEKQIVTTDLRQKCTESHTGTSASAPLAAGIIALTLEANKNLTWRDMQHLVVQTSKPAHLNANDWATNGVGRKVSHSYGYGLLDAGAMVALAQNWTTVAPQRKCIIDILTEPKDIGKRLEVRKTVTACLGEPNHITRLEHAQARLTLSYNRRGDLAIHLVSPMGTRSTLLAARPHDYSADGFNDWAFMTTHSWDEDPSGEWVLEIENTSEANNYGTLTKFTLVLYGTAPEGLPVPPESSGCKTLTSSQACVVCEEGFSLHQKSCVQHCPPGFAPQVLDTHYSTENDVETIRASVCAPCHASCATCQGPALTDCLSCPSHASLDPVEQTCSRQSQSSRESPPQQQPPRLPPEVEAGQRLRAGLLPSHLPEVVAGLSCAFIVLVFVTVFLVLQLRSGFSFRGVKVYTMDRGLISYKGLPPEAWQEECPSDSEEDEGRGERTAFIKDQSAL

T1 sequence (P09958 108-574): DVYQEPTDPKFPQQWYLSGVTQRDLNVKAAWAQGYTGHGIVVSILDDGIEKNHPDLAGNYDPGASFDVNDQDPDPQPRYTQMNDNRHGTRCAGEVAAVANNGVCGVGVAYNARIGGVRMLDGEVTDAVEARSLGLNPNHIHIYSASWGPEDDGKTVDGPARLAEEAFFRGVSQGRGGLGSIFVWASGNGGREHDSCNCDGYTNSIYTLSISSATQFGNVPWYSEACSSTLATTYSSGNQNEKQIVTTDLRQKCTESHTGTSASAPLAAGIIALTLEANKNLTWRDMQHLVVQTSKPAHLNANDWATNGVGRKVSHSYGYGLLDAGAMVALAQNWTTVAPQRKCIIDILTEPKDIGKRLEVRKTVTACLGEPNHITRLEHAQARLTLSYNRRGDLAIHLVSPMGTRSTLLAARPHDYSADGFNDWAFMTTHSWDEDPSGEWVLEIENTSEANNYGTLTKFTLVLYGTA

| SMILES | furin enzyme pIC50 [1] | EC50 [2] [nM] |
| --- | --- | --- |
| CC(C)(O)CN1CCN(c2cnc(Oc3cc(CN4CCC(CC(=O)O)CC4)cc(-c4cc(Cl)cc(Cl)c4)n3)cn2)CC1 [Example 343, 2-(1-((2-(3,5-dichlorophenyl)-6-((5-(4-(2-hydroxy-2-methylpropyl)piperazin-1-yl)pyrazin-2-yl)oxy)pyridin-4-yl)methyl)piperidin-4-yl)acetic acid] | 8.7 | 63.1 |
| O=C(O)CC1CCN(Cc2cc(Oc3ccc(N4CCN5CCC4C5)nn3)nc(-c3cc(Cl)cc(Cl)c3)c2)CC1 (centres unmarked) [Example 344, 2-(1-((2-((6-(1,4-diazabicyclo[3.2.1]octan-4-yl)pyridazin-3-yl)oxy)-6-(3,5-dichlorophenyl)pyridin-4-yl)methyl)piperidin-4-yl)acetic acid] | 8.4 | 79.4 |
| CN1C[C@@H]2C[C@H]1CN2c1cnc(Oc2cc(CN3CCC(CC(=O)O)CC3)cc(-c3cc(Cl)cc(Cl)c3)n2)cn1 [Example 346, 2-(1-((2-(3,5-dichlorophenyl)-6-((5-((1S,4S)-5-methyl-2,5-diazabicyclo+2.2.1+heptan-2-yl)pyrazin-2-yl)oxy)pyridin-4-yl)methyl)piperidin-4-yl)acetic acid] | 8.5 | 12.6 |
| CC(C)N1CCN(c2cnc(Oc3cc(CN4CCC(CC(=O)O)CC4)cc(-c4cc(Cl)cc(Cl)c4)n3)cn2)CC1 [Example 347, 2-(1-((2-(3,5-dichlorophenyl)-6-((5-(4-isopropylpiperazin-1-yl)pyrazin-2-yl)oxy)pyridin-4-yl)methyl)piperidin-4-yl)acetic acid] | 8.5 | 15.8 |
| O=C(O)CC1CCN(Cc2cc(Oc3cnc(N4CCN5CCC4C5)cn3)nc(-c3cc(Cl)cc(Cl)c3)c2)CC1 (centres unmarked) [Example 348, 2-(1-((2-((5-(1,4-diazabicyclo[3.2.1]octan-4-yl)pyrazin-2-yl)oxy)-6-(3,5-dichlorophenyl)pyridin-4-yl)methyl)piperidin-4-yl)acetic acid] | 8.4 | 50.1 |
| CC(O)CCN1CCN(c2cnc(Oc3cc(CN4CCC(CC(=O)O)CC4)cc(-c4cc(Cl)cc(Cl)c4)n3)cn2)CC1 (centres unmarked) [Example 349, 2-(1-((2-(3,5-dichlorophenyl)-6-((5-(4-(3-hydroxybutyl)piperazin-1-yl)pyrazin-2-yl)oxy)pyridin-4-yl)methyl)piperidin-4-yl)acetic acid] | 8.6 | 10 |
| CN1C2CC1CN(c1cnc(Oc3cc(CN4CCC(CC(=O)O)CC4)cc(-c4cc(Cl)cc(Cl)c4)n3)cn1)C2 [Example 352, 2-(1-((2-(3,5-dichlorophenyl)-6-((5-(6-methyl-3,6-diazabicyclo[3.1.1]heptan-3-yl)pyrazin-2-yl)oxy)pyridin-4-yl)methyl)piperidin-4-yl)acetic acid] | 8.2 | 50.1 |

Next, values leading:

| furin enzyme pIC50 [1] | EC50 [2] [nM] | SMILES |
| --- | --- | --- |
| 8.6 | 12.6 | CCN1CCCN(c2cnc(Oc3cc(CN4CCC(CC(=O)O)CC4)cc(-c4cc(Cl)cc(Cl)c4)n3)cn2)CC1 [Example 345, 2-(1-((2-(3,5-dichlorophenyl)-6-((5-(4-ethyl-1,4-diazepan-1-yl)pyrazin-2-yl)oxy)pyridin-4-yl)methyl)piperidin-4-yl)acetic acid] |
| 8.6 | 1.26 | CN1CCN(c2cnc(Oc3cc(CN4CCC(CCO)CC4)cc(-c4cc(Cl)cc(Cl)c4)n3)cn2)CC1 [Example 350, 2-(1-((2-(3,5-dichlorophenyl)-6-((5-(4-methylpiperazin-1-yl)pyrazin-2-yl)oxy)pyridin-4-yl)methyl)piperidin-4-yl)ethanol] |
| 9.4 | 25.1 | CC(CC1CCN(Cc2cc(Oc3cnc(N4CCCN(C)CC4)cn3)nc(-c3cc(Cl)cc(Cl)c3)c2)CC1)C(=O)O (centres unmarked) [Example 351, 3-(1-((2-(3,5-dichlorophenyl)-6-((5-(4-methyl-1,4-diazepan-1-yl)pyrazin-2-yl)oxy)pyridin-4-yl)methyl)piperidin-4-yl)-2-methylpropanoic acid] |
